Measurements as given in ChEMBL document CHEMBL3813650, “GSK114: A selective inhibitor for elucidating the biological role of TNNI3K” (Bioorg Med Chem Lett, 2016).

Key:
[1] = target: T1, Serine/threonine-protein kinase TNNI3K (Homo sapiens, UniProt Q59H18); experiment: Displacement of 5-({[2-({[3-({4-[(5-hydroxy-2-methylphenyl)amino]-2-pyrimidinyl}amino)phenyl]carbonyl}amino)-ethyl]amino}carbonyl)-2-(6-hydroxy-3-oxo-3H-xanthen-9-yl)benzoic acid from full length human TNNI3K expressed in baculovirus system incubated for 60 mins by fluorescence polarization assay
T1 sequence (Q59H18 whole entry): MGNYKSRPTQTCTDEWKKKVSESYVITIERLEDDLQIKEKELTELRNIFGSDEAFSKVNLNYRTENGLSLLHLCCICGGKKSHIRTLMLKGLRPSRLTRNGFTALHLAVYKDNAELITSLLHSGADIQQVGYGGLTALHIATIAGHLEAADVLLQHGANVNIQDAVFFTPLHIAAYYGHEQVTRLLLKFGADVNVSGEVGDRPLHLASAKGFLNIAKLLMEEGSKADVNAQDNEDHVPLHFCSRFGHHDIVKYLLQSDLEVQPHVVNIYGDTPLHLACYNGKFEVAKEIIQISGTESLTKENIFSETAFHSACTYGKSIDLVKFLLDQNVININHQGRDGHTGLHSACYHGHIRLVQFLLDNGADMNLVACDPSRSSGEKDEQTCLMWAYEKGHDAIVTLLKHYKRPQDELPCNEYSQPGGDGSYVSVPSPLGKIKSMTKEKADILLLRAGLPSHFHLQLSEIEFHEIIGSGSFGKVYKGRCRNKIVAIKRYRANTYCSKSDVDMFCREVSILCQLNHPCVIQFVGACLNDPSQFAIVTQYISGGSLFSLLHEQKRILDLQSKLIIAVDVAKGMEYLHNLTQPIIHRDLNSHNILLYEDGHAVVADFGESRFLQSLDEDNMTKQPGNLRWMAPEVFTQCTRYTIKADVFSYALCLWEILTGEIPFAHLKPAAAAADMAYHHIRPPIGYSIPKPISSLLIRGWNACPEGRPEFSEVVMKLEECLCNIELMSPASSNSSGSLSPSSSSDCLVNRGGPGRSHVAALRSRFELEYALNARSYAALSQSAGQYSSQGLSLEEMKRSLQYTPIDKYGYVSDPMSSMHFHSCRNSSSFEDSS

Rattus norvegicus = experiment: Dose normalized AUC in Sprague-Dawley rat at 2 mg/kg, po administered as gastric bolus by LC/MS/MS analysis; assay type: ADME, organism-based; details: in vivo
[2] = target: Serine/threonine-protein kinase B-raf (Homo sapiens, UniProt P15056, V600E); experiment: Inhibition of full-length His6-tagged BRAF V600E mutant (2 to 766 residues) (unknown origin) expressed in baculovirus system by B-Raf accelerated MEK ATPase assay
[3] = target: T1, Serine/threonine-protein kinase TNNI3K; experiment: Inhibition of human myc-tagged TNNI3K autophosphorylation overexpressed in HEKMSR2 cells incubated for 30 mins by time resolved fluorescence assay; assay type: cell-based
[4] = Fraction unbound in Sprague-Dawley rat plasma at 2 mg/kg, po administered as gastric bolus by LC/MS/MS analysis; assay type: ADME, organism-based
[5] = Half life in Sprague-Dawley rat at 2 mg/kg, po administered as gastric bolus by LC/MS/MS analysis; assay type: ADME, organism-based; details: in vivo
[6] = Cmax in Sprague-Dawley rat at 2 mg/kg, po administered as gastric bolus by LC/MS/MS analysis; assay type: ADME, organism-based; set-up: dose 2 mg/kg, route oral; details: in vivo

Sequence of Serine/threonine-protein kinase B-raf (P15056 2-766 V600E limits assumed): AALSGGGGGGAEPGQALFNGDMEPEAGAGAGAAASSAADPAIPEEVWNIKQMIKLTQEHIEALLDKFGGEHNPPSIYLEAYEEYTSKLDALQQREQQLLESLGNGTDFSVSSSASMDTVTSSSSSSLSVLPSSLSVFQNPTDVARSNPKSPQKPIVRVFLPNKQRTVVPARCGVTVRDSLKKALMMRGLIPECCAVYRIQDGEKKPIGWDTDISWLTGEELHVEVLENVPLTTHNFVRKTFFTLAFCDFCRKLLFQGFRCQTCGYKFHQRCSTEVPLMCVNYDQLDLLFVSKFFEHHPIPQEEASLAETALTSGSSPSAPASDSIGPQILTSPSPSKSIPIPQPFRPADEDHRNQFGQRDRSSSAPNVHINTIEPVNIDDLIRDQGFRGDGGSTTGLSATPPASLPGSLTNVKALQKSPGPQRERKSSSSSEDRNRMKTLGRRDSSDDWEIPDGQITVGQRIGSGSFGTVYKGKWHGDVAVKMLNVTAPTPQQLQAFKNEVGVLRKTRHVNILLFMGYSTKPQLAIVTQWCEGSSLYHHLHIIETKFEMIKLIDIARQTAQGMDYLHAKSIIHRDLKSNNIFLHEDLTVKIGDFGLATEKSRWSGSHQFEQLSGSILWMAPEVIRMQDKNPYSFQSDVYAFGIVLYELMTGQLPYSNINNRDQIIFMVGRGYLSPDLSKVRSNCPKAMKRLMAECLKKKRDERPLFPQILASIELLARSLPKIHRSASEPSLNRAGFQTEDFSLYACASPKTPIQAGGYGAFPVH

Structure (SMILES) | IC50 [1] [nM] | AUC/dose (Rattus norvegicus) [kg·h/L] | IC50 [2] [nM] | IC50 [3] [nM] | fraction unbound [4] | half-life [5] [h] | Cmax [6] [ng/mL]
CNS(=O)(=O)c1ccc(N(C)C)c(Nc2ncnc3cc(OC)c(OC)cc23)c1 | 25 | 0.18 | 1000 | 100 | 0.202 | 3.6 | 130
CNc1ccc2ncnc(Nc3cc(S(=O)(=O)NC)ccc3N(C)C)c2c1 | 50 | – | 1000 | – | – | – | –
CNc1ccc2c(Nc3cc(S(=O)(=O)NC)ccc3N(C)C)ncnc2c1 | 40 | – | 10000 | – | – | – | –
CNS(=O)(=O)c1ccc(N(C)C)c(Nc2ncnc3ccc(OC)cc23)c1 | 79 | – | 1000 | – | – | – | –
CNS(=O)(=O)c1ccc(OCC(F)(F)F)c(Nc2ncnc3cc(OC)cc(OC)c23)c1 | < 10 | 1.4 | 50 | 13 | – | – | –
CNS(=O)(=O)c1ccc(N(C)C)c(Nc2ncnc3ccc(N)cc23)c1 | 32 | – | 630 | – | – | – | –
CNS(=O)(=O)c1ccc(N(C)C)c(Nc2ncnc3cc[nH]c23)c1 | 25 | 0.01 | 250 | 500 | – | – | –
CCOc1cc2ncnc(Nc3cc(S(=O)(=O)NC)ccc3OCC(F)(F)F)c2cc1OC | 13 | 1.7 | 100 | 50 | – | – | –
CNS(=O)(=O)c1ccc(N(C)C)c(Nc2ncnc3cc(OCCCOC)ccc23)c1 | < 10 | 0.03 | 800 | 25 | – | – | –
CNS(=O)(=O)c1ccc(N(C)C)c(Nc2ncnc3cc(OC)cc(OC)c23)c1 | < 10 | 0.04 | 79 | 10 | – | – | –
CNS(=O)(=O)c1ccc(N(C)C)c(Nc2ncnc3[nH]ccc23)c1 | – | 0.59 | – | – | – | – | –
CNS(=O)(=O)c1ccc(N(C)C)c(Nc2ncnc3ccccc23)c1 | 200 | – | 250 | – | – | – | –
CNS(=O)(=O)c1ccc(N2CCOCC2)c(Nc2ncnc3[nH]cc(Cl)c23)c1 | < 10 | – | 0.6 | – | – | – | –
CNS(=O)(=O)c1ccc(OCC(F)(F)F)c(Nc2ncnc3cc(OC)c(OC)cc23)c1 | 25 | 1.9 | 130 | 160 | – | – | –
CNS(=O)(=O)c1ccc(OCC(F)(F)F)c(Nc2ncnc3cc(OC)c(OC)c(OC)c23)c1 | < 10 | 0.24 | 79 | 63 | – | – | –
CNS(=O)(=O)c1ccc(OCC(F)(F)F)c(Nc2ncnc3cc(OCCCOC)ccc23)c1 | 25 | 0.07 | 160 | 320 | – | – | –
CNS(=O)(=O)c1ccc(N(C)C)c(Nc2ncnc3ccsc23)c1 | 200 | – | 1000 | – | – | – | –
CNS(=O)(=O)c1ccc(N(C)C)c(Nc2ncnc3cc(N)ccc23)c1 | 63 | – | 4000 | – | – | – | –
CNS(=O)(=O)c1ccc(N(C)C)c(Nc2ncnc3ccn(C)c23)c1 | 16 | 0.02 | 130 | 50 | – | – | –
CNS(=O)(=O)c1ccc(OCC(F)(F)F)c(Nc2ncnc3cc(OC(C)C)c(OC)cc23)c1 | 130 | – | 32000 | – | – | – | –
CNS(=O)(=O)c1ccc(OCC(F)(F)F)c(Nc2ncnc3cc(OCCCN4CCOCC4)ccc23)c1 | 13 | 0 | 1300 | 79 | – | – | –
CNS(=O)(=O)c1ccc(N(C)C)c(Nc2ncnc3cc(OCCCN4CCOCC4)ccc23)c1 | < 10 | 0.02 | 2500 | 25 | – | – | –
